Reference: US20230104823A1, “PROCESS FOR THE PREPARATION OF PURINE DERIVATIVES EXHIBITING CDK INHIBITORY ACTIVITY” (CYCLACEL LIMITED, priority 2020, published 2023)
≈ marks a conversion by molar mass, not a printed value.

Experiments:
[1] = solubility measurement during crystallisation of crude compound [1]; assay type: physicochemical; conditions: for T=0 solubility measurement: 5 volumes
Experimental: The hot mixture was clarified through a heated large nylon syringe filter (0.44 μm) into a Mya4 100 ml process vessel with overhead U-shape agitation at 200 RPM pre-heated to 95° C. (target internal temperature=80-85° C.). The dark brown solution was cooled to 74.5° C. over 15 minutes and seeded with crystals of compound [1] (Form A) (ca. 6 mg 0.1% wt). […] Noticeable amounts of off-white precipitate were observed ca. 61-62° C. Following cooling, the mixture was held at 0° C. for ca. 3 hours. The solids were isolated via filtration, with no evidence of fouling of the vessel or agitator. The vessel and filter cake were washed with the isolated filtrates and air dried for 15 minutes before collection of the off-white solids and dark brown liquors. The solids were collected and dried in vacuo at 45° C. for ca. 4 hours to yield the title compound. 4.88 g of crystalline Compound [1] was successfully isolated in 80.1% yield. The maximum theoretical recovery based upon measured solubility pre-isolation at 0° C. was 94.2%.
Crude Compound [1] (6.00 g) was suspended ethyl acetate (30 ml, 5 volumes) in a suitable glass vessel under N2 fitted with reflux condenser and stirrer bead agitation at 420 RPM. The beige suspension was heated to 75° C. (target 70-75° C.) upon which full dissolution to a dark brown solution was achieved during heating at ca. 68° C. The hot mixture was clarified through a heated large nylon syringe filter (0.44 μm) into a Mya4 100 ml process vessel with overhead U-shape agitation at 200 RPM pre-heated to 85° C. (target internal temperature=70-75° C.). The dark brown solution was cooled to 65.2° C. over 15 minutes (target 62.5-67.5° C.) and seeded with crystals of compound [1] (Form A) (ca. 6 mg 0.1% wt). Cooling was continued to 59.8° C. […] The solids were isolated via filtration. The vessel and filter cake were washed with the isolated filtrates and air dried for 12 minutes before collection of the off-white solids and dark brown liquors. The solids were collected and dried in vacuo at 45° C. for ca. 4 hours to yield the title compound. 4.59 g of crystalline Compound [1] was successfully isolated in 76.4% yield. The maximum theoretical recovery based upon measured solubility pre-isolation at 0° C. was 90.6%.
Crude Compound [1] (5.96 g) was suspended n-Butyl acetate (30 ml, 5 volumes) in a suitable glass vessel under N2 fitted with reflux condenser and stirrer bead agitation at 420 RPM. The beige suspension was heated to 85° C. (target 80-85° C.) upon which full dissolution to a dark brown solution was achieved during heating at ca. 82° C. The hot mixture was clarified through a heated large nylon syringe filter (0.44 μm) into a Mya4 100 ml process vessel with overhead U-shape agitation at 200 RPM pre-heated to 95° C. (target internal temperature=80-85° C.). The dark brown solution was cooled to 74.6° C. over 15 minutes (target 72.5-77.5° C.) and seeded with crystals of compound [1] (Form A) (ca. 6 mg 0.1% wt). Cooling was continued to 69.5° C. […] The solids were isolated via filtration. The vessel and filter cake were washed with the isolated filtrates and air dried for 10 minutes before collection of the grey solids and dark brown liquors. The solids were collected and dried in vacuo at 45° C. for ca. 4 hours to yield the title compound. 4.64 g of crystalline Compound [1] was successfully isolated in 77.9% yield. The maximum theoretical recovery based upon measured solubility pre-isolation at 0° C. was 91.7%.

CDK = conditions: statement in background section; cited from earlier work
[2] = tested on: range of different cell lines; conditions: statement in background section; cited from earlier work

- T=0 solubility measurement ([1]; ethyl acetate, after seeding at 59.8° C.): 184.35 mg/mL
- solubility ([1]; ethyl acetate, held at 0° C. for ca. 5 hours (90.06% development)): 18.84 mg/mL (≈ 47.4 mM)
- T=0 solubility measurement ([1]; isopropyl acetate, after seeding at 70.1° C.): 189.83 mg/mL
- T=0 solubility measurement ([1]; n-butyl acetate, after seeding at 69.5° C.): 175.84 mg/mL
- solubility ([1]; n-butyl acetate, held at 0° C. for ca. 3 hours (91.7% development)): 16.61 mg/mL (≈ 41.8 mM)
Structure (SMILES): CC[C@H](Nc1nc(NCc2cnc(C)cc2C)c2ncn(C(C)C)c2n1)[C@@H](C)O [Compound [1]]
- CDK inhibitory activity (CDK): potent CDK inhibitory activity
- potency in cellular toxicity studies [2]: surprisingly high potency
